Measurements taken from patent US20250236589A1, “THERAPEUTIC PHENETHYLAMINE COMPOSITIONS AND METHODS OF USE” (Cybin IRL Limited, priority 2022, published 2025).
Where “and” joins values, the source holds several entries; their conditions need not be identical. Identical values can stand only once. Like-named read-outs stand apart in the source and are kept apart here. Marks after values point to notes of the source that are not given here.

What was measured:
[1] = In vitro liver microsome stability (RLM); assay type: in vitro ADME; details: rat, rat liver microsomes, 0.5 mg/mL microsomes, NADPH, read-out: RLM, t1/2
Experimental: (§1) In vitro stability was determined in Human (HLM), Rat (RLM), Mouse (MsLM), and dog (DLM) Liver Microsomes. All liver microsomes were purchased from a commercial supplier (e.g. XenoTech). The reaction mixture, minus NADPH, was prepared as described below. The test compound was added into the reaction mixture at a final concentration of 1 μM or co-dosed with their deuterated analog(s) at 1 μM each. The control compound, testosterone, was run simultaneously with the test compound in a separate reaction. The reaction mixture (without cofactor) was equilibrated in a shaking water bath at 37° C. for 5 minutes. The reaction was initiated by the addition of the cofactor, and the mixture was incubated in a shaking water bath at 37° C. Aliquots (150 μL) were withdrawn at 0, 5, 10, 20, 30, 60, and 120 minutes. Test compound and testosterone samples were immediately combined with 150 μL of ice-cold acetonitrile (ACN) containing 0.1% formic acid and internal standard to terminate the reaction. The samples were then mixed and centrifuged to precipitate proteins. All samples were assayed by LC-MS/MS using electrospray ionization. The peak area response ratio (PARR) of analyte to internal standard at each time point was compared to the PARR at time 0 to determine the percent remaining at each time point. Half-lives were calculated using GraphPad software, fitting to a single-phase exponential decay equation.

[2] = molecular target: MAO-A (Homo sapiens (Human), UniProt P21397); test: Recombinant human MAO-A activity (stability); assay type: in vitro ADME; details: hrMAO 0.02 mg/mL, read-out: MAO-A, t1/2
Experimental: hrMAO-A and MAO control were purchased from XenoTech. The reaction mixture was prepared as described below. The test compound was added into the reaction mixture at a final concentration of 1 μM or co-dosed with their deuterated analog at 1 μM each. The positive control kynuramine (25 μM) was run simultaneously with the test compound in a separate reaction. The reaction mixture (without test compounds or kynuramine) was equilibrated in a shaking water bath at 37° C. for 5 minutes. The reaction was initiated by the addition of the test compound or kynuramine, and the mixture was incubated in a shaking water bath at 37° C. Aliquots (150 μL) of the test compound reaction mixture were withdrawn at 0, 5, 10, 20, 30, 60, and 120 minutes. Aliquots (150 μL) of the positive control reaction mixture were withdrawn at 0 and 30 minutes. Test compound(s) and kynuramine samples were immediately combined with 150 μL of ice-cold 100% acetonitrile containing 0.1% formic acid and internal standard (0.2 μM metoprolol) to terminate the reaction. The samples were then mixed and centrifuged to precipitate proteins. All samples were assayed by LC-MS/MS. The peak area response ratio (PARR) of analyte to internal standard at each time point was compared to the PARR at time 0 to determine the percent remaining at each time point. Half-lives were calculated using GraphPad software, fitting to a single-phase exponential decay equation.

[3] = molecular target: T1, 5-HT2A receptor (Homo sapiens (Human), UniProt P28223); test: 5-HT2A radioligand competition binding ([3H]LSD or [3H]ketanserin)
[4] = molecular target: T2, 5-HT2C receptor (Homo sapiens (Human), UniProt P28335); test: 5-HT2C radioligand competition binding ([3H]mesulergine or [3H]LSD)
[5] = cited from earlier work
[6] = test system: mice; test: Head-twitch response (HTR) screening in mice; assay type: in vivo, mouse
Experimental: Protocols were followed according to Canal C E, Morgan D. Head-twitch response in rodents induced by the hallucinogen 2,5-dimethoxy-4-iodoamphetamine: a comprehensive history, a re-evaluation of mechanisms, and its utility as a model. […] Mice were housed in standard laboratory cages with ad libitum access to food and water and were acclimated to the vivarium for at least one week prior to testing in a procedure room. In a typical experiment, mice were injected 3 mg/kg of test article subcutaneously. Mice were placed immediately thereafter in a clear, polycarbonate box (46×20×20 cm), and HTRs were counted at various time points after administration using hand-held tally counters. In a separate experiment, plasma and brain samples were collected at 15 and 160 minutes after administration of test compounds to measure plasma and brain concentrations. Quantification was performed using LC-MS/MS method (LLOQ, 9 nM).

[7] = molecular target: T1, 5-HT2A receptor; test: 5-HT2A functional assay, IP1 (IPOne); assay type: cell-based; details: for 2A/2B EC50 Selectivity / Emax: IP1 assay; for Emax: relative to 5-HT
Experimental: (§2) After incubation, cells were lysed and fluorescence acceptor and donor were added. FRET was measured after 60 min at room temperature using a microplate reader (Envision, Perkin Elmer). TRUPATH assays followed a similar workflow, except that different reagents were used, and LiCl was not included in the samples; the protocol was based on the report by Olsen, R. H. J. et al., cited above.

[8] = Plasma and brain concentrations after dosing in mice (screening); assay type: in vivo, mouse; details: for concentration at 15 min / concentration at 160 min / Kp at 160 min: mouse; for concentration at 15 min / concentration at 160 min: sc, mice, 3 mg/kg s.c.; for Kp at 160 min: brain/plasma, subcutaneous, 3 mg/kg, read-out: brain/plasma ratio, 160 min
[9] = molecular target: T3, human 5-HT2B receptor (Homo sapiens (Human), UniProt P41595); test: 5-HT2B functional assay, IP1 (IPOne); assay type: cell-based
Experimental: (§3) 5-HT2A,2B,2C receptor-mediated Gq activation—canonical signaling pathways—[phosphoinositide hydrolysis leading to the production of inositol phosphate 1 (IP1, IPOne, Cisbio assay) or direct G-protein activation using TRUPATH technology]were measured as previously described (Porter, R. H. P., Benwell, K. R., Lamb, H., Malcolm, C. S., Allen, N. F., Revell, D. F., Adams, D. R. and Sheardown, M. J., 1999, Functional characterization of agonists at recombinant human 5-HT2a, 5HT2b and 5-HT2c receptors in CHO-K1 cells, Brit J Pharmacol 128, 13; Olsen, R. H. J., DiBerto, J. F., English, J. G. et al. TRUPATH, an open-source biosensor platform for interrogating the GPCR transducerome. […] Briefly, for the IPOne assay, for 5-HT2ARs, CHO-K1 or HEK-293 cells were incubated with test articles and 5-HT (positive control) in stimulation buffer containing LiCl. After incubation, cells were lysed and fluorescence acceptor and donor were added. FRET was measured after 60 min at room temperature using a microplate reader (Envision, Perkin Elmer). TRUPATH assays followed a similar workflow, except that different reagents were used, and LiCl was not included in the samples; the protocol was based on the report by Olsen, R. H. J. et al., cited above.

[10] = molecular target: 5-HT1A receptors (Homo sapiens (Human), UniProt P08908); test: 5-HT1A radioligand binding ([3H]8-OH-DPAT); details: for inhibition at 0.1 µM: 100 nM
Experimental: In another series of 5-HT1A,2A,2B radioligand competition binding assays, the conditions were as follows: For 5-HT1A assays, cell membrane homogenates (˜30 μg protein) derived from HEK-293 cells expressing human 5-HT1ARs were incubated with 0.5 nM [^3H]8-hydroxy-2-(di-n-propylamino)tetralin ([^3H]8-OH-DPAT) for 60 min at room temperature in the presence or absence of the test article. Non-specific binding was determined in the presence of 10 μM 8-OH-DPAT. Samples were then analyzed as described above, with only immaterial differences. […] Samples were then analyzed as described above.

[11] = In vitro liver microsome stability (HLM); assay type: in vitro ADME; details: human, human liver microsomes, 0.5 mg/mL microsomes, NADPH, read-out: HLM, t1/2
Experimental: as §1, with “The peak area response ratio (PARR) of analyte to internal standard at each time point was compared to the PARR at time 0 to determine the percent remaining at each time point.” left out

[12] = In vitro liver microsome stability (MsLM); assay type: in vitro ADME; details: mouse, mouse liver microsomes, 0.5 mg/mL microsomes, NADPH, read-out: MsLM, t1/2
Experimental: as §1, with “The peak area response ratio (PARR) of analyte to internal standard at each time point was compared to the PARR at time 0 to determine the percent remaining at each time point.” left out

[13] = In vitro liver microsome stability (DLM); assay type: in vitro ADME; details: dog, dog liver microsomes, 0.5 mg/mL microsomes, NADPH, read-out: DLM, t1/2
Experimental: as §1, with “The peak area response ratio (PARR) of analyte to internal standard at each time point was compared to the PARR at time 0 to determine the percent remaining at each time point.” left out

[14] = molecular target: T1, 5-HT2A receptor; test: 5-HT2A functional assay, TRUPATH (BRET); assay type: cell-based
Experimental: as §2

[15] = molecular target: T3, human 5-HT2B receptor; test: 5-HT2B radioligand competition binding ([3H]LSD); details: read-out: 5-HT2B, Ki; radioligand [3H]LSD
[16] = molecular target: T2, 5-HT2C receptor; test: 5-HT2C functional assay, TRUPATH (BRET); assay type: cell-based
Experimental: as §3

[17] = read-out: 5-HT2A, Ki, radioligand [3H]ketanserin
[18] = read-out: 5-HT2C, Ki, radioligand [3H]mesulergine
[19] = read-out: 5-HT2A, Ki, radioligand [3H]LSD
[20] = brain, read-out: Brain, 160 min
[21] = plasma, read-out: Plasma, 15 min
[22] = plasma, read-out: Plasma, 160 min

T3 sequence (P41595 whole entry, looked up): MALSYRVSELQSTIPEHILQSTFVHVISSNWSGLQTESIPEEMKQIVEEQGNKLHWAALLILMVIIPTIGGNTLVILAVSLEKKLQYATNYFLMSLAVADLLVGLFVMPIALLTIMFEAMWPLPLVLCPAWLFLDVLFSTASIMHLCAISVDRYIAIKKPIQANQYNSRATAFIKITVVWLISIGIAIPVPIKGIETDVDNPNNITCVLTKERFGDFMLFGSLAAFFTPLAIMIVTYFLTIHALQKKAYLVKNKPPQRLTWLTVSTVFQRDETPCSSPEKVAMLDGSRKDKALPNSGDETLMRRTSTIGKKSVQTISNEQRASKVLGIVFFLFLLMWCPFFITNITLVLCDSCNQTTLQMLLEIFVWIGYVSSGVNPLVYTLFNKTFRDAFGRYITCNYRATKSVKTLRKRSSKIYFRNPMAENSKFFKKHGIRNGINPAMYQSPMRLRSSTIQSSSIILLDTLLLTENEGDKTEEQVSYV
MAO-A, sequence (P21397 whole entry, looked up): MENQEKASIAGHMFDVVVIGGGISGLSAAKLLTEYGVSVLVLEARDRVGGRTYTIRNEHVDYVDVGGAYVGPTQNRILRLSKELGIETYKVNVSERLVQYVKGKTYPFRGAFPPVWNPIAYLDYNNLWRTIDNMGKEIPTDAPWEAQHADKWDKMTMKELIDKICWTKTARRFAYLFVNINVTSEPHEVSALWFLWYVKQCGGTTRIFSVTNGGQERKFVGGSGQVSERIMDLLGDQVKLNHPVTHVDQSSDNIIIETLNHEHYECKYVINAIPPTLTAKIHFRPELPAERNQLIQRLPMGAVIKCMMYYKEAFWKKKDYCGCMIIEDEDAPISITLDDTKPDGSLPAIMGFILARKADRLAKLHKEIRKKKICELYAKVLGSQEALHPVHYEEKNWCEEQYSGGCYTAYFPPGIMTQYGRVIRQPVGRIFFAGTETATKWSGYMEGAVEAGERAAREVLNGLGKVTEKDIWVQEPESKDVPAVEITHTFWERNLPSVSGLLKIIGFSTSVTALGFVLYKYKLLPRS
T2 sequence (P28335 whole entry, looked up): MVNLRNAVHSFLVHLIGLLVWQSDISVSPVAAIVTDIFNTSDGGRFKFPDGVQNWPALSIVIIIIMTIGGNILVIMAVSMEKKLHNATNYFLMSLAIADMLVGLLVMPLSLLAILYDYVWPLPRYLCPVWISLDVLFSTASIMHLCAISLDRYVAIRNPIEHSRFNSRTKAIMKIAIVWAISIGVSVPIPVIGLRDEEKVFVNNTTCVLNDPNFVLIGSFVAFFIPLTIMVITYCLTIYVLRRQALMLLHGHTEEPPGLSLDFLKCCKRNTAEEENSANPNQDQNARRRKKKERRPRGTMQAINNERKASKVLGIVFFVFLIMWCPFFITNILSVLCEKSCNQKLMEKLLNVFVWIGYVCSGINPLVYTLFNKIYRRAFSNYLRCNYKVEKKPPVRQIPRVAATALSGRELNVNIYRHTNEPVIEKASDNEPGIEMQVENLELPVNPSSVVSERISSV

## [2H]C([2H])(N)Cc1cc(OC)c(C(F)(F)F)cc1OC [IV-3, 2-(2,5-dimethoxy-4-(trifluoromethyl)phenyl)ethan-1,1-d2-1-amine]
[1]
  half-life at 1 μM: 0.185 h
[2]
  half-life at 1 μM: 1.7 h
[3]; [17]
  Ki: 42 nM
[4]; [18]
  Ki: 23 nM

## COc1cc(OC)c(OC)cc1CCN [2C—O]
[5]
  activity after oral administration: inactive

## COc1cc(SC(F)F)c(OC)cc1CCN [Compound I-8, 2-(4-((difluoromethyl)thio)-2,5-dimethoxyphenyl)ethan-1-amine]
[6]; mice, 3 mg/kg s.c.
  HTR 15-25 min: 33.4
  HTR 160-170 min: 17.4
[3]
  affinity at 5-HT2A receptors (in words): high affinity
[3]; [19]
  Ki: 6.3 nM
[7]
  EC50: 5.3 nM
  2A/2B EC50 Selectivity: 12.8
  Emax: 99%
[8]; brain, read-out: Brain 15 min
  concentration at 15 min: 1900 nM
[8]; [20]
  concentration at 160 min: 2200 nM
[8]; 160 min after 3 mg/kg
  Kp at 160 min: 74
[8]; [21]
  concentration at 15 min: 300 nM
[8]; [22]
  concentration at 160 min: 30 nM
[9]
  EC50: 67.9 nM
[9]; IP1 assay, relative to 5-HT
  Emax: 87%
[10]
  inhibition at 0.1 µM: 38%
  inhibition at 1 µM: 84%

## [2H]C([2H])([2H])Oc1cc(SC(F)(F)F)c(OC([2H])([2H])[2H])cc1CCN [II-10, 2-(2,5-bis(methoxy-d3)-4-((trifluoromethyl)thio)phenyl)ethan-1-amine]
[1]
  half-life at 1 μM: 0.988 h
[2]
  half-life at 1 μM: > 2 h
[6]; measured 0-15 min
  HTR 15-25 min: 25.6 ##
[11]
  half-life at 1 μM: > 2 h
[3]
  Ki: 35 nM
  affinity at 5-HT2A receptors (in words): superior affinity
[3]; read-out: 5-HT2A, Ki, [3H]ketanserin, high-affinity active state
  Ki: 0.54 nM
[7]
  5-HT2AR agonist activity (in words): pronounced agonists
[8]; 160 min after 3 mg/kg
  brain/plasma ratio, 160 min: 24.4
  Kp at 160 min: 24 to 32
[8]; [20]
  concentration at 160 min: 8800 nM
[8]; [22]
  concentration at 160 min: 360 nM
[12]
  half-life at 1 μM: > 2 h
[13]
  half-life at 1 μM: > 2 h

## COc1cc(C(F)(F)F)c(OC)cc1CCN [Reference Compound 4, 2-(2,5-dimethoxy-4-(trifluoromethyl)phenyl)ethan-1-amine, reference compound]
[1]
  half-life at 1 μM: 0.128 h
[2]
  half-life at 1 μM: 1.46 h
[3]; [17]
  Ki: 25 nM
[4]; [18]
  Ki: 35 nM

## COc1cc(SC(F)(F)F)c(OC)cc1CCNCC1CC1 [Compound V-1, N-(cyclopropylmethyl)-2-(2,5-dimethoxy-4-((trifluoromethyl)thio)phenyl)ethan-1-amine]
[6]; 3 mg/kg
  HTR (in words): elicited an HTR to a much lower extent than DOI
[6]; calculated using 0-30 min
  HTR 15-25 min: 3 ####
[6]; mice, 3 mg/kg s.c.
  HTR 160-170 min: 4.42
[3]; [19]
  Ki: 10 nM
[3]; read-out: 5-HT2AR affinity (Ki)
  Ki: 10 nM
[7]
  5-HT2AR agonist activity (in words): potent 5-HT2AR agonist
  Emax: 31%
[7]; 5-HT2A EC50, IP1 assay
  EC50: 35 nM and 35.7 nM
[14]
  EC50: 28 nM
[14]; TRUPATH, relative to 5-HT
  Emax: 75%
[15]
  Ki: 79 nM
[9]; IP1 assay, constrained to 100%
  Emax: 100%
[9]; IP1 assay, read-out: 5-HT2B EC50
  EC50: > 1000 nM
[16]
  EC50: 46 nM
[16]; relative to 5-HT
  Emax: 92%
[4]
  Ki: 74.9 nM
[4]; read-out: 5-HT2C, Ki, [3H]LSD, high-affinity active state
  Ki: 0.98 nM

## COc1cc(SCCC(F)F)c(OC)cc1CCN [Compound I-3, 2-(4-((3,3-difluoropropyl)thio)-2,5-dimethoxyphenyl)ethan-1-amine]
[1]
  half-life at 1 μM: 1.85 h
[6]; mice, 3 mg/kg s.c.
  HTR 15-25 min: 5
  HTR 160-170 min: 2.5
[3]
  Ki: 44 nM
  affinity at 5-HT2A receptors (in words): high affinity
[3]; read-out: 5-HT2A, Ki, [3H]LSD, high-affinity active state
  Ki: 0.4 nM
[7]
  EC50: 10 nM
  2A/2B EC50 Selectivity: 16
  Emax: 93%
[8]; brain, read-out: Brain 15 min
  concentration at 15 min: 670 nM
[8]; [20]
  concentration at 160 min: 510 nM
[8]; 160 min after 3 mg/kg
  Kp at 160 min: 9.3
[8]; [21]
  concentration at 15 min: 700 nM
[8]; [22]
  concentration at 160 min: 55 nM
[9]
  EC50: 160 nM
[9]; IP1 assay, constrained to 100%
  Emax: 100%
[10]
  inhibition at 0.1 µM: 10%
  inhibition at 1 µM: 63%
